Source: US20060194837A1, “Tetrahydroisoquinoline compounds” (priority 2004, published 2006)
Read-outs that look alike come from different tables or passages of the source.

Key:
Rat SERT = target: T1, Rat SERT (Rattus norvegicus, UniProt P31652); assay: Rat brain SERT binding ([3H]-citalopram displacement); conditions: rat brain membranes without cerebellum, 0.6 nM [3H]-citalopram, 60 min at 25° C.
T1 construct: A rat brain without cerebellum (Zivic Laboratories, Inc.—Pittsburgh, Pa.) was homogenized; tissue Zivic Laboratories, Inc; host or cells: rat brain without cerebellum, membranes
Experimental: The supernatant was removed and re-centrifuged at 15,000 rpm for 30 min. […] Membranes were incubated with 0.6 nM [^3H]-Citalopram plus/minus test compounds for 60 min at 25° C. and harvested by rapid filtration over GF/C glass fiber filters (pretreated with 0.3% polyethylenimine) followed by four washes with ice-cold buffer.

human SERT = target: T2, human SERT (Homo sapiens, UniProt P31645); assay: Human SERT binding (3H-citalopram displacement); conditions: HEK293 membranes expressing human SERT, rt 1 h
T2 construct: expressed in transfected cells; host or cells: HEK293 membranes
Experimental: Homogenized HEK293 (Human Embryonic Kidney) membranes expressing the human SERT were incubated with ^3H-citalopram (SERT) at rt for 1 h in 50 mM Tris, 120 mM NaCl, 5 mM KCl (pH 7.4). […] The membranes were washed and the radioactivity was counted as above.

human H3 receptor = target: T3, human H3 receptor (Homo sapiens, UniProt Q9Y5N1); assay: H3 receptor binding (N-[3H]-α-methylhistamine displacement); conditions: membranes of SK-N-MC cells expressing cloned human H3 receptor, 0.8 nM N-[3H]-α-methylhistamine, 60 min at 25° C.
T3 construct: expressed in transfected cells
T3 sequence (Q9Y5N1 whole entry): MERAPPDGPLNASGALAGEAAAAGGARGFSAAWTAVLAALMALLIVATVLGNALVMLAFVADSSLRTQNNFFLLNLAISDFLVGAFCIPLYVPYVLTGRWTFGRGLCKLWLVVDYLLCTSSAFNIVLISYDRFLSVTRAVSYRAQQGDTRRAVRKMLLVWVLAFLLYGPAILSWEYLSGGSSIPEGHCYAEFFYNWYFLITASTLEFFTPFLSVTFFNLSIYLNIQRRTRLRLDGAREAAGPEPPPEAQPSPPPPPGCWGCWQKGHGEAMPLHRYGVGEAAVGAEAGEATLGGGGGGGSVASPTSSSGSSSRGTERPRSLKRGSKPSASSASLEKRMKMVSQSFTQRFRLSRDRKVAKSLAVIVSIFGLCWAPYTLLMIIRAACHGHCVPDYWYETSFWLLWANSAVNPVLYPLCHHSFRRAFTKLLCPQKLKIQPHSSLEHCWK

T2 sequence (P31645 whole entry): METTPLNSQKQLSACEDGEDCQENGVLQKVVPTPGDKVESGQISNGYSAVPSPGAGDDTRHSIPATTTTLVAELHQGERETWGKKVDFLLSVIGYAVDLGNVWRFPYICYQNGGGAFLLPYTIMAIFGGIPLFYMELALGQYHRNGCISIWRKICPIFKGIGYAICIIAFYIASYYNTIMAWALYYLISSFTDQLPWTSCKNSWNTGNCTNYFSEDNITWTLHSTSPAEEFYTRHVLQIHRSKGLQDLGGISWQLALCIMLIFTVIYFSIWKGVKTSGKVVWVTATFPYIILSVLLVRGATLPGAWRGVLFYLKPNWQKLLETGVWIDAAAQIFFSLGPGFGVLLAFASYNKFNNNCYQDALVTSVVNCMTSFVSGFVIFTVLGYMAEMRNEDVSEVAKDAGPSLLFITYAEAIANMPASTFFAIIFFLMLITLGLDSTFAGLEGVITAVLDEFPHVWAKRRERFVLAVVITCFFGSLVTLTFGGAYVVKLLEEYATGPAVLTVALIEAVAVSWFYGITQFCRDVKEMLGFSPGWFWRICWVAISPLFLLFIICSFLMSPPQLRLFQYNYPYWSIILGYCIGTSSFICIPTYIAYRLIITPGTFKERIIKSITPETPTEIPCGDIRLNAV
T1 sequence (P31652 whole entry): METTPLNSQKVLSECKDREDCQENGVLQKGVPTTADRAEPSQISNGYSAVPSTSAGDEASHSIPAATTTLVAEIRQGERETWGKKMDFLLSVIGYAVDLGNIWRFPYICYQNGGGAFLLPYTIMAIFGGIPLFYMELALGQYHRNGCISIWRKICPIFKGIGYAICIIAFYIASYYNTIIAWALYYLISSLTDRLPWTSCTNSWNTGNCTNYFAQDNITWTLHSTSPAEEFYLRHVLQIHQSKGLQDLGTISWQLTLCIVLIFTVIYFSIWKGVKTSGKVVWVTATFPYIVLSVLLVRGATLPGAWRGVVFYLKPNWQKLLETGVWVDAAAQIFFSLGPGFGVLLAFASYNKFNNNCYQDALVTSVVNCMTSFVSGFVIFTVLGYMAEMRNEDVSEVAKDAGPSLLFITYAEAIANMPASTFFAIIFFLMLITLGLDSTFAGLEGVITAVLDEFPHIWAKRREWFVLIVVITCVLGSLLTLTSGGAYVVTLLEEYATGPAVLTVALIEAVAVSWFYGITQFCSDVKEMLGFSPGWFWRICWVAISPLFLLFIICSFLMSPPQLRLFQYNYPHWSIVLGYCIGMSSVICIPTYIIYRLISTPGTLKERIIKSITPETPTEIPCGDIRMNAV

## COc1ccc(C2CN(C)Cc3cc(OCCCN4CCC4)ccc32)cc1 (stereo not drawn) [Example 34, 7-(3-Azetidin-1-yl-propoxy)-4-(4-methoxy-phenyl)-2-methyl-1,2,3,4-tetrahydro-isoquinoline]
Rat SERT; read-out: Rat SERT Ki
  Ki: 11 nM
Human SERT
  Ki: 4 nM

## CSc1ccc(C2CN(C)Cc3cc(OCCCN4CCC(F)CC4)ccc32)cc1 (stereo not drawn) [Example 52, 7-[3-(4-Fluoro-piperidin-1-yl)-propoxy]-2-methyl-4-(4-methylsulfanyl-phenyl)-1,2,3,4-tetrahydro-isoquinoline]
Rat SERT; read-out: Rat SERT Ki
  Ki: 3 nM
Human SERT
  Ki: 2 nM

## CSc1ccc(C2CN(C)Cc3cc(OCCCN4CCC(F)CC4)ccc32)cc1 (single isomer, unassigned) [Example 154, 7-[3-(4-Fluoro-piperidin-1-yl)-propoxy]-2-methyl-4-(4-methylsulfanyl-phenyl)-1,2,3,4-tetrahydro-isoquinoline]
Rat SERT; Rat SERT Ki (nM)
  Ki: 5 nM
Human SERT
  Ki: 4 nM

## CSc1ccc(C2CN(C)Cc3cc(OCCCN4CCC(F)CC4)ccc32)cc1 (single isomer, unassigned) [Example 153, 7-[3-(4-Fluoro-piperidin-1-yl)-propoxy]-2-methyl-4-(4-methylsulfanyl-phenyl)-1,2,3,4-tetrahydro-isoquinoline]
Rat SERT; Rat SERT Ki (nM)
  Ki: 2 nM
Human SERT
  Ki: 2 nM

## COc1ccc(C2CN(C)Cc3cc(OCCCN4CCCC(F)(F)C4)ccc32)cc1 (racemic) [Example 29, 7-[3-(3,3-Difluoro-piperidin-1-yl)-propoxy]-4-(4-methoxy-phenyl)-2-methyl-1,2,3,4-tetrahydro-isoquinoline]
Rat SERT; read-out: Rat SERT Ki
  Ki: 14 nM
Human SERT
  Ki: 8 nM

## COc1ccc(C2CN(C)Cc3cc(OCCCN4CCCC(F)(F)C4)ccc32)cc1 (single isomer, unassigned) [Example 29B, 7-[3-(3,3-Difluoro-piperidin-1-yl)-propoxy]-4-(4-methoxy-phenyl)-2-methyl-1,2,3,4-tetrahydro-isoquinoline]
Rat SERT; read-out: Rat SERT Ki
  Ki: 8 nM
Human SERT
  Ki: 6 nM

## COc1ccc(C2CN(C)Cc3cc(OCCCN4CCCC(F)(F)C4)ccc32)cc1 (single isomer, unassigned) [Example 29A, 7-[3-(3,3-Difluoro-piperidin-1-yl)-propoxy]-4-(4-methoxy-phenyl)-2-methyl-1,2,3,4-tetrahydro-isoquinoline]
Human SERT
  Ki: 13 nM

## CN1Cc2cc(OCCCN3CCC(F)CC3)ccc2C(c2cccc(OC(F)(F)F)c2)C1 (stereo not drawn) [Example 128, 7-[3-(4-Fluoro-piperidin-1-yl)-propoxy]-2-methyl-4-(3-trifluoromethoxy-phenyl)-1,2,3,4-tetrahydro-isoquinoline]
Human H3 receptor
  Ki: 12 nM
Rat SERT; read-out: Rat SERT Ki
  Ki: 40 nM

## C[C@H]1COCCN1CCCOc1ccc2c(c1)CN(C)CC2c1ccc(SC(F)(F)F)cc1 (stereo partly drawn) [Example 219, 2-Methyl-7-[3-(3S-methyl-morpholin-4-yl)-propoxy]-4-(4-trifluoromethylsulfanyl-phenyl)-1,2,3,4-tetrahydro-isoquinoline]
Human H3 receptor
  Ki: 33 nM
Rat SERT; read-out: Rat SERT Ki
  Ki: 39 nM

## CN1Cc2cc(OCCCN3CCC(F)CC3)ccc2C(c2ccccc2F)C1 (stereo not drawn) [Example 125, 4-(2-Fluoro-phenyl)-7-[3-(4-fluoro-piperidin-1-yl)-propoxy]-2-methyl-1,2,3,4-tetrahydro-isoquinoline]
Human H3 receptor
  Ki: 2 nM
Rat SERT; read-out: Rat SERT Ki
  Ki: 45 nM

## COc1ccc(C2CN(C)Cc3cc(OCC4CCN(C5CCC5)CC4)ccc32)cc1 (stereo not drawn) [Example 248, 7-(1-Cyclobutyl-piperidin-4-ylmethoxy)-4-(4-methoxy-phenyl)-2-methyl-1,2,3,4-tetrahydro-isoquinoline]
Human H3 receptor
  Ki: 5 nM
Rat SERT; read-out: Rat SERT Ki
  Ki: 7 nM

## COc1ccc(C2CN(C)Cc3cc(OCCC4CCCN4C)ccc32)cc1 (mixture of isomers) [Example 240, 4-(4-Methoxy-phenyl)-2-methyl-7-[2-(1-methyl-pyrrolidin-2-yl)-ethoxy]-1,2,3,4-tetrahydro-isoquinoline]
Human H3 receptor
  Ki: 4 nM
Rat SERT; read-out: Rat SERT Ki
  Ki: 3 nM

## COc1ccc(C2CN(C)Cc3cc(OCCCN4CCN(c5ccc(C#N)cc5)CC4)ccc32)cc1 (stereo not drawn) [Example 208, 4-(4-{3-[4-(4-Methoxy-phenyl)-2-methyl-1,2,3,4-tetrahydro-isoquinolin-7-yloxy]-propyl}-piperazin-1-yl)-benzonitrile]
Human H3 receptor
  Ki: 137 nM
Rat SERT; read-out: Rat SERT Ki
  Ki: 4 nM

## COc1ccc(C2CN(C)Cc3cc(OCCCN4CC(C(c5ccccc5)c5ccccc5)C4)ccc32)cc1 (stereo not drawn) [Example 137, 7-[3-(3-Benzhydryl-azetidin-1-yl)-propoxy]-4-(4-methoxy-phenyl)-2-methyl-1,2,3,4-tetrahydro-isoquinoline]
Human H3 receptor
  Ki: 5000 nM
Rat SERT; read-out: Rat SERT Ki
  Ki: 77 nM

## CSc1ccc(C2CN(C)Cc3cc(OCC4CCN(CCF)CC4)ccc32)cc1 (stereo not drawn) [Example 178, 7-[1-(2-Fluoro-ethyl)-piperidin-4-ylmethoxy]-2-methyl-4-(4-methylsulfanyl-phenyl)-1,2,3,4-tetrahydro-isoquinoline]
Human H3 receptor
  Ki: 18 nM
Rat SERT; read-out: Rat SERT Ki
  Ki: 6 nM

## CSc1ccc(C2CN(C)Cc3cc(OCC4CNCCO4)ccc32)cc1 (mixture of isomers) [Example 264, 2-Methyl-4-(4-methylsulfanyl-phenyl)-7-(morpholin-2-ylmethoxy)-1,2,3,4-tetrahydro-isoquinoline]
Human H3 receptor
  Ki: 3250 nM
Rat SERT; read-out: Rat SERT Ki
  Ki: 6 nM

## COc1ccc(C2CN(C)Cc3cc(OCC4CCN(CC(C)C)CC4)ccc32)c(F)c1 (stereo not drawn) [Example 115, 4-(2-Fluoro-4-methoxy-phenyl)-7-(1-isobutyl-piperidin-4-ylmethoxy)-2-methyl-1,2,3,4-tetrahydro-isoquinoline]
Human H3 receptor
  Ki: 10 nM
Rat SERT; read-out: Rat SERT Ki
  Ki: 8 nM

## COc1ccc(C2CN(C)Cc3cc(OCC4CN(CCF)CCO4)ccc32)cc1 (mixture of isomers) [Example 258, 7-[4-(2-Fluoro-ethyl)-morpholin-2-ylmethoxy]-4-(4-methoxy-phenyl)-2-methyl-1,2,3,4-tetrahydro-isoquinoline]
Human H3 receptor
  Ki: 32 nM
Rat SERT; read-out: Rat SERT Ki
  Ki: 8 nM

## COc1cccc(C2CN(C)Cc3cc(OC4CCNCC4)ccc32)c1 (stereo not drawn) [Example 96, 4-(3-Methoxy-phenyl)-2-methyl-7-(piperidin-4-yloxy)-1,2,3,4-tetrahydro-isoquinoline]
Human H3 receptor
  Ki: 182 nM
Rat SERT; read-out: Rat SERT Ki
  Ki: 14 nM

## COc1ccc(C2CN(C)Cc3cc(OCCCN4CCC[C@H]4C(F)(F)F)ccc32)cc1 (stereo partly drawn) [Example 28, 4-(4-Methoxy-phenyl)-2-methyl-7-[3-((2S)-trifluoromethyl-pyrrolidin-1-yl)-propoxy]-1,2,3,4-tetrahydro-isoquinoline]
Human H3 receptor
  Ki: 140 nM
Rat SERT; read-out: Rat SERT Ki
  Ki: 12 nM

## COc1ccc(C2CN(C)Cc3cc(OCC4CCN(C5CCC5)CC4)ccc32)c(F)c1 (stereo not drawn) [Example 113, 7-(1-Cyclobutyl-piperidin-4-ylmethoxy)-4-(2-fluoro-4-methoxy-phenyl)-2-methyl-1,2,3,4-tetrahydro-isoquinoline]
Human H3 receptor
  Ki: 8 nM
Rat SERT; read-out: Rat SERT Ki
  Ki: 10 nM

## COc1ccc(C2CN(C)Cc3cc(OCCC4CCCN4C)ccc32)cc1 (single isomer, unassigned) [Example 240A, 4-(4-Methoxy-phenyl)-2-methyl-7-[2-(1-methyl-pyrrolidin-2-yl)-ethoxy]-1,2,3,4-tetrahydro-isoquinoline]
Human H3 receptor
  Ki: 3 nM
Rat SERT; read-out: Rat SERT Ki
  Ki: 2 nM

## COc1ccc(C2CN(C)Cc3cc(OCC4CCNCC4)ccc32)cc1Cl (stereo not drawn) [Example 79, 4-(3-Chloro-4-methoxy-phenyl)-2-methyl-7-(piperidin-4-ylmethoxy)-1,2,3,4-tetrahydro-isoquinoline]
Human H3 receptor
  Ki: 183 nM
Rat SERT; read-out: Rat SERT Ki
  Ki: 5 nM

## COc1cccc(C2CN(C)Cc3cc(OC4CCN(C(C)C)CC4)ccc32)c1 (stereo not drawn) [Example 98, 7-(1-Isopropyl-piperidin-4-yloxy)-4-(3-methoxy-phenyl)-2-methyl-1,2,3,4-tetrahydro-isoquinoline]
Human H3 receptor
  Ki: 2 nM
Rat SERT; read-out: Rat SERT Ki
  Ki: 11 nM

## CN1Cc2cc(OCCCN3CCC(F)CC3)ccc2C(c2ccc(Cl)cc2Cl)C1 (stereo not drawn) [Example 54, 4-(2,4-Dichloro-phenyl)-7-[3-(4-fluoro-piperidin-1-yl)-propoxy]-2-methyl-1,2,3,4-tetrahydro-isoquinoline]
Human H3 receptor
  Ki: 16 nM
Rat SERT; Rat SERT Ki (nM)
  Ki: 32 nM

## CN1Cc2cc(OCCCN3CCC(F)CC3)ccc2C(c2ccccc2Cl)C1 (stereo not drawn) [Example 132, 4-(2-Chloro-phenyl)-7-[3-(4-fluoro-piperidin-1-yl)-propoxy]-2-methyl-1,2,3,4-tetrahydro-isoquinoline]
Human H3 receptor
  Ki: 4 nM
Rat SERT; read-out: Rat SERT Ki
  Ki: 19 nM

## COc1ccc(C2CN(C)Cc3cc(OCCCN4CCN(c5ccccc5O)CC4)ccc32)cc1 (stereo not drawn) [Example 203, 2-(4-{3-[4-(4-Methoxy-phenyl)-2-methyl-1,2,3,4-tetrahydro-isoquinolin-7-yloxy]-propyl}-piperazin-1-yl)-phenol]
Human H3 receptor
  Ki: 504 nM
Rat SERT; read-out: Rat SERT Ki
  Ki: 8 nM

## CSc1ccc(C2CN(C)Cc3cc(OCCCN4CCOCC4)c(C)cc32)cc1 (stereo not drawn) [Example 173, 2,6-Dimethyl-4-(4-methylsulfanyl-phenyl)-7-(3-morpholin-4-yl-propoxy)-1,2,3,4-tetrahydro-isoquinoline]
Human H3 receptor
  Ki: 15 nM
Rat SERT; read-out: Rat SERT Ki
  Ki: 18 nM

## COc1ccc(C2CN(C)Cc3cc(OCC4CCN(C(C)C)CC4)ccc32)cc1F (stereo not drawn) [Example 89, 4-(3-Fluoro-4-methoxy-phenyl)-7-(1-isopropyl-piperidin-4-ylmethoxy)-2-methyl-1,2,3,4-tetrahydro-isoquinoline]
Human H3 receptor
  Ki: 2 nM
Rat SERT; read-out: Rat SERT Ki
  Ki: 5 nM
